Results: patent publication US20250215012A1, “IKZF2 DEGRADERS AND USES THEREOF” (REGENTS OF THE UNIVERSITY OF MICHIGAN, priority 2022, published 2025)

Molecular target: IKZF2 (Homo sapiens (Human), UniProt Q96SW2+Q9UKS7)
Test: IKZF2 HiBiT Assay (Jurkat-IKZF2-HiBiT cell line)
Format: cell-based
Conditions: Jurkat-IKZF2-HiBiT cells, 24 hours; for DC50: read-out: HiBit assay degradation analysis DC50; for Dmax: read-out: HiBit assay degradation analysis Dmax
Method in brief: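 IKZF2 degradation was assessed as HiBiT luminescence in Jurkat-IKZF2-HiBiT cells, using lytic detection after 24 h of compound treatment at 37 °C, 5% CO2.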

Chain of IKZF2 (Q9UKS7 whole entry): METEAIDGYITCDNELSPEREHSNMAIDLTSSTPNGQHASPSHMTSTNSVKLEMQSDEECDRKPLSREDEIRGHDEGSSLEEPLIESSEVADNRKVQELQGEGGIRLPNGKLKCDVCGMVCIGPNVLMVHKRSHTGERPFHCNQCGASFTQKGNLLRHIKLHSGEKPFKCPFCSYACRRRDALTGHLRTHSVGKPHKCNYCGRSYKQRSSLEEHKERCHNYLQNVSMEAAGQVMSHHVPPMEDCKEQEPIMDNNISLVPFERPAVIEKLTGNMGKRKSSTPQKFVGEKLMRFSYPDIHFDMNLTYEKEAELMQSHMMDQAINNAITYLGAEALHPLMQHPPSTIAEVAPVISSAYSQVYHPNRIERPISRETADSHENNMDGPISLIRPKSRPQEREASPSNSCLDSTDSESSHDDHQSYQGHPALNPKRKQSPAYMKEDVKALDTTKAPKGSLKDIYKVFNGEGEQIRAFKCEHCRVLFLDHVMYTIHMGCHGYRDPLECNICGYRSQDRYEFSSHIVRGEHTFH
Chain of IKZF2 (Q96SW2 whole entry): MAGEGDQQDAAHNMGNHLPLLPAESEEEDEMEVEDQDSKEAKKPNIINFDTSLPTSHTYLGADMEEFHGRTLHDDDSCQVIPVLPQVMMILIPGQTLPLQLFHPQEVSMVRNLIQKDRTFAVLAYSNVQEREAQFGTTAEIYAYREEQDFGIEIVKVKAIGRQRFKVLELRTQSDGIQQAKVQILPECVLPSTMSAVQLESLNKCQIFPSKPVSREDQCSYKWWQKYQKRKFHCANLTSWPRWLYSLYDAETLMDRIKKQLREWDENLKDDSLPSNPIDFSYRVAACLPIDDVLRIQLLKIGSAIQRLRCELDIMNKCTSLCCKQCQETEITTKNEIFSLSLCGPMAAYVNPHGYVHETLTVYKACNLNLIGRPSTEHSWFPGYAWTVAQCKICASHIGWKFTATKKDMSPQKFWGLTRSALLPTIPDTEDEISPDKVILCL
Chain of IKZF2 (Q16531 whole entry partner): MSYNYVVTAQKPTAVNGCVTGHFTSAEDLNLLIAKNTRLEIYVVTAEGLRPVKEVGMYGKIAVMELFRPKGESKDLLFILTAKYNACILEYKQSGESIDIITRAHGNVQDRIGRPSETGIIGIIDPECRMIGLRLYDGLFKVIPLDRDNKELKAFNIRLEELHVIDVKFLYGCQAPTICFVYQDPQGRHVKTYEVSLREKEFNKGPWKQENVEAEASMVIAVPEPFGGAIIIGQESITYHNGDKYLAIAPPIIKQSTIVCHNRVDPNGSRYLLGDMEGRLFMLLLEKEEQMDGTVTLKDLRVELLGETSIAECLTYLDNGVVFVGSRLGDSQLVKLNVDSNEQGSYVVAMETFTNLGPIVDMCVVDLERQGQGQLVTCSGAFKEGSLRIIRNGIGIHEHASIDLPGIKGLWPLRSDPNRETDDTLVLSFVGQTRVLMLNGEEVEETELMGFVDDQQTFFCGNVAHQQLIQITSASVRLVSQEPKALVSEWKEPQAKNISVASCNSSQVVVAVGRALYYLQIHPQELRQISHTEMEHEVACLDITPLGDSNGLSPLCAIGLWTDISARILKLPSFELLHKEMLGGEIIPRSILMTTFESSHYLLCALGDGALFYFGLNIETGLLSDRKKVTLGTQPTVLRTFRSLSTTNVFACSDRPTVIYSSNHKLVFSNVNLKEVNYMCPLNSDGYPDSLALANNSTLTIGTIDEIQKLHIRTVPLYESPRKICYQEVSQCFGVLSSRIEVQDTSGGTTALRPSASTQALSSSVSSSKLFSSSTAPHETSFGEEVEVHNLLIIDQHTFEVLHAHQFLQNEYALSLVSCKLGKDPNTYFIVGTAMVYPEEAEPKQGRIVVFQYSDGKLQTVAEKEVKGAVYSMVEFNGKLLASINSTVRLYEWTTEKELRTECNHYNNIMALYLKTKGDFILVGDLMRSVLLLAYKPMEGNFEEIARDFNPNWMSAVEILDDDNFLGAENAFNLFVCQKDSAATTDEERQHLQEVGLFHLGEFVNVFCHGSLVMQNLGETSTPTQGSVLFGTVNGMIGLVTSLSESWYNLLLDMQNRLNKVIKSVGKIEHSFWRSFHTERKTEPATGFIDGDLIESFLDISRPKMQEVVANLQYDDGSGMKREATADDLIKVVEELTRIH

## O=C1CCC(N2Cc3c(ccc4c3OCC43CCN(Cc4nc(-c5ccccc5)cs4)CC3)C2=O)C(=O)N1 (centres unmarked) [Compound A85, 3-(6-oxo-1′-((4-phenylthiazol-2-yl)methyl)-6,8-dihydro-2H,7H-spiro[furo[2,3-e]isoindole-3,4′-piperidin]-7-yl)piperidine-2,6-dione]
  DC50: > 500 nM
  Dmax: < 40%

## O=C1CCC(N2Cc3c(ccc4c3OCC43CCN(Cc4cccc(Oc5ccccc5)c4)CC3)C2=O)C(=O)N1 (centres unmarked) [Compound A86, 3-(6-oxo-1′-(3-phenoxybenzyl)-6,8-dihydro-2H,7H-spiro[furo[2,3-e]isoindole-3,4′-piperidin]-7-yl)piperidine-2,6-dione]
  DC50: > 500 nM
  Dmax: 40 to 60%

## CC(C)(C)c1cccc(CN2CCC3(CC2)COc2c3ccc3c2CN(C2CCC(=O)NC2=O)C3=O)c1 (centres unmarked) [Compound A88, 3-(1′-(3-(tert-butyl)benzyl)-6-oxo-6,8-dihydro-2H,7H-spiro[furo[2,3-e]isoindole-3,4′-piperidin]-7-yl)piperidine-2,6-dione]
  DC50: > 500 nM
  Dmax: < 40%

## O=C1CCC(N2Cc3c(ccc4c3OCC43CCN(CC4CCC(c5ccccc5)CC4)CC3)C2=O)C(=O)N1 (centres unmarked) [Compound A89, 3-(6-oxo-1′-((4-phenylcyclohexyl)methyl)-6,8-dihydro-2H,7H-spiro[furo[2,3-e]isoindole-3,4′-piperidin]-7-yl)piperidine-2,6-dione]
  DC50: 50 to 200 nM
  Dmax: 60 to 80%

## O=C1CCC(N2Cc3c(ccc4c3OCC43CCN(Cc4cccc(OC(F)F)c4)CC3)C2=O)C(=O)N1 (centres unmarked) [Compound A90, 3-(1′-(3-(difluoromethoxy)benzyl)-6-oxo-6,8-dihydro-2H,7H-spiro[furo[2,3-e]isoindole-3,4′-piperidin]-7-yl)piperidine-2,6-dione]
  DC50: > 500 nM
  Dmax: < 40%

## O=C1CCC(N2Cc3c(ccc4c3OCC43CCN(Cc4cccc(Br)c4)CC3)C2=O)C(=O)N1 (centres unmarked) [Compound A91, 3-(1′-(3-bromobenzyl)-6-oxo-6,8-dihydro-2H,7H-spiro[furo[2,3-e]isoindole-3,4′-piperidin]-7-yl)piperidine-2,6-dione]
  DC50: < 50 nM
  Dmax: 60 to 80%

## CCOc1cccc(CN2CCC3(CC2)COc2c3ccc3c2CN(C2CCC(=O)NC2=O)C3=O)c1 (centres unmarked) [Compound A92, 3-(1′-(3-ethoxybenzyl)-6-oxo-6,8-dihydro-2H,7H-spiro[furo[2,3-e]isoindole-3,4′-piperidin]-7-yl)piperidine-2,6-dione]
  DC50: 50 to 200 nM
  Dmax: 40 to 60%

## O=C1CCC(N2Cc3c(ccc4c3OCC43CCN(Cc4cccc(CF)c4)CC3)C2=O)C(=O)N1 (centres unmarked) [Compound A93, 3-(1′-(3-(fluoromethyl)benzyl)-6-oxo-6,8-dihydro-2H,7H-spiro[furo[2,3-e]isoindole-3,4′-piperidin]-7-yl)piperidine-2,6-dione]
  DC50: 50 to 200 nM
  Dmax: 60 to 80%

## O=C1CCC(N2Cc3c(ccc4c3OCC43CCN(Cc4cccc(C(F)F)c4)CC3)C2=O)C(=O)N1 (centres unmarked) [Compound A94, 3-(1′-(3-(difluoromethyl)benzyl)-6-oxo-6,8-dihydro-2H,7H-spiro[furo[2,3-e]isoindole-3,4′-piperidin]-7-yl)piperidine-2,6-dione]
  DC50: 200 to 500 nM
  Dmax: 40 to 60%

## CNC(=O)c1cccc(CN2CCC3(CC2)COc2c3ccc3c2CN(C2CCC(=O)NC2=O)C3=O)c1 (centres unmarked) [Compound A95]
  DC50: > 500 nM
  Dmax: 40 to 60%

## O=C1CCC(N2Cc3c(ccc4c3OCC43CCN(Cc4cccc(N5CCCC5)c4)CC3)C2=O)C(=O)N1 (centres unmarked) [Compound A96, 3-(6-oxo-1′-(3-(pyrrolidin-1-yl)benzyl)-6,8-dihydro-2H,7H-spiro[furo[2,3-e]isoindole-3,4′-piperidin]-7-yl)piperidine-2,6-dione]
  DC50: 50 to 200 nM
  Dmax: 60 to 80%

## O=C1CCC(N2Cc3c(ccc4c3OCC43CCN(Cc4cccc(N5CCOCC5)c4)CC3)C2=O)C(=O)N1 (centres unmarked) [Compound A97, 3-(1′-(3-morpholinobenzyl)-6-oxo-6,8-dihydro-2H,7H-spiro[furo[2,3-e]isoindole-3,4′-piperidin]-7-yl)piperidine-2,6-dione]
  DC50: > 500 nM
  Dmax: 40 to 60%

## O=C1CCC(N2Cc3c(ccc4c3OCC43CCN(Cc4cccc(C(=O)O)c4)CC3)C2=O)C(=O)N1 (centres unmarked) [Compound A99, 3-((7-(2,6-dioxopiperidin-3-yl)-6-oxo-7,8-dihydro-2H,6H-spiro[furo[2,3-e]isoindole-3,4′-piperidin]-1′-yl)methyl)benzoic acid]
  DC50: > 500 nM
  Dmax: < 40%

## O=C1CCC(N2Cc3c(ccc4c3OCC43CCN(Cc4ccccc4Oc4ccccc4)CC3)C2=O)C(=O)N1 (centres unmarked) [Compound A100, 3-(6-oxo-1′-(2-phenoxybenzyl)-6,8-dihydro-2H,7H-spiro[furo[2,3-e]isoindole-3,4′-piperidin]-7-yl)piperidine-2,6-dione]
  DC50: > 500 nM
  Dmax: < 40%

## O=C1CCC(N2Cc3c(ccc4c3OCC43CCN(Cc4cccc(Oc5ccccn5)c4)CC3)C2=O)C(=O)N1 (centres unmarked) [Compound A101, 3-(6-oxo-1′-(3-(pyridin-2-yloxy)benzyl)-6,8-dihydro-2H,7H-spiro[furo[2,3-e]isoindole-3,4′-piperidin]-7-yl)piperidine-2,6-dione]
  DC50: < 50 nM
  Dmax: 60 to 80%

## O=C1CCC(N2Cc3c(ccc4c3OCC43CCN(Cc4cccc(-c5ccccc5)c4)CC3)C2=O)C(=O)N1 (centres unmarked) [Compound A102, 3-(1′-([1,1′-biphenyl]-3-ylmethyl)-6-oxo-6,8-dihydro-2H,7H-spiro[furo[2,3-e]isoindole-3,4′-piperidin]-7-yl)piperidine-2,6-dione]
  DC50: 200 to 500 nM
  Dmax: 40 to 60%

## O=C1CCC(N2Cc3c(ccc4c3OCC43CCN(Cc4cccc(-c5ccccn5)c4)CC3)C2=O)C(=O)N1 (centres unmarked) [Compound A103, 3-(6-oxo-1′-(3-(pyridin-2-yl)benzyl)-6,8-dihydro-2H,7H-spiro[furo[2,3-e]isoindole-3,4′-piperidin]-7-yl)piperidine-2,6-dione]
  DC50: 200 to 500 nM
  Dmax: 40 to 60%

## O=C1CCC(N2Cc3c(ccc4c3OCC43CCN(Cc4cccc(-c5cn[nH]c5)c4)CC3)C2=O)C(=O)N1 (centres unmarked) [Compound A104, 3-(1′-(3-(1H-pyrazol-4-yl)benzyl)-6-oxo-6,8-dihydro-2H,7H-spiro[furo[2,3-e]isoindole-3,4′-piperidin]-7-yl)piperidine-2,6-dione]
  DC50: < 50 nM
  Dmax: > 80%

## O=C1CCC(N2Cc3c(ccc4c3OCC43CCN(Cc4cccc(-c5nccs5)c4)CC3)C2=O)C(=O)N1 (centres unmarked) [Compound A106, 3-(6-oxo-1′-(3-(thiazol-2-yl)benzyl)-6,8-dihydro-2H,7H-spiro[furo[2,3-e]isoindole-3,4′-piperidin]-7-yl)piperidine-2,6-dione]
  DC50: < 50 nM
  Dmax: 60 to 80%

## O=C1CCC(N2Cc3c(ccc4c3OCC43CCN(Cc4cccc(-n5cccn5)c4)CC3)C2=O)C(=O)N1 (centres unmarked) [Compound A107, 3-(1′-(3-(1H-pyrazol-1-yl)benzyl)-6-oxo-6,8-dihydro-2H,7H-spiro[furo[2,3-e]isoindole-3,4′-piperidin]-7-yl)piperidine-2,6-dione]
  DC50: < 50 nM
  Dmax: 60 to 80%

## O=C1CCC(N2Cc3c(ccc4c3OCC43CCN(Cc4cccc(-n5ccnc5)c4)CC3)C2=O)C(=O)N1 (centres unmarked) [Compound A108, 3-(1′-(3-(1H-imidazol-1-yl)benzyl)-6-oxo-6,8-dihydro-2H,7H-spiro[furo[2,3-e]isoindole-3,4′-piperidin]-7-yl)piperidine-2,6-dione]
  DC50: > 500 nM
  Dmax: 40 to 60%

## Cn1ccc2c(CN3CCC4(CC3)COc3c4ccc4c3CN(C3CCC(=O)NC3=O)C4=O)cccc21 (centres unmarked) [Compound A109, 3-(1′-((1-methyl-1H-indol-4-yl)methyl)-6-oxo-6,8-dihydro-2H,7H-spiro[furo[2,3-e]isoindole-3,4′-piperidin]-7-yl)piperidine-2,6-dione]
  DC50: < 50 nM
  Dmax: 60 to 80%

## O=C1CCC(N2Cc3c(ccc4c3OCC43CCN(Cc4cc(F)cc5cc[nH]c45)CC3)C2=O)C(=O)N1 (centres unmarked) [Compound A110, 3-(1′-((5-fluoro-1H-indol-7-yl)methyl)-6-oxo-6,8-dihydro-2H,7H-spiro[furo[2,3-e]isoindole-3,4′-piperidin]-7-yl)piperidine-2,6-dione]
  DC50: < 50 nM
  Dmax: > 80%

## Cc1[nH]c2c(CN3CCC4(CC3)COc3c4ccc4c3CN(C3CCC(=O)NC3=O)C4=O)cccc2c1C (centres unmarked) [Compound A111, 3-(1′-((2,3-dimethyl-1H-indol-7-yl)methyl)-6-oxo-6,8-dihydro-2H,7H-spiro[furo[2,3-e]isoindole-3,4′-piperidin]-7-yl)piperidine-2,6-dione]
  DC50: 50 to 200 nM
  Dmax: 60 to 80%

## COCc1cccc(CN2CCC3(CC2)COc2c3ccc3c2CN(C2CCC(=O)NC2=O)C3=O)c1 (centres unmarked) [Compound A112, 3-(1′-(3-(methoxymethyl)benzyl)-6-oxo-6,8-dihydro-2H,7H-spiro[furo[2,3-e]isoindole-3,4′-piperidin]-7-yl)piperidine-2,6-dione]
  DC50: 200 to 500 nM
  Dmax: 60 to 80%

## O=C1CCC(N2Cc3c(ccc4c3OCC43CCN(Cc4cccc5c4COC5)CC3)C2=O)C(=O)N1 (centres unmarked) [Compound A113, 3-(1′-((1,3-dihydroisobenzofuran-4-yl)methyl)-6-oxo-6,8-dihydro-2H,7H-spiro[furo[2,3-e]isoindole-3,4′-piperidin]-7-yl)piperidine-2,6-dione]
  DC50: < 50 nM
  Dmax: 60 to 80%

## O=C1CCC(N2Cc3c(ccc4c3OCC43CCN(Cc4cc(C(F)(F)F)cc5[nH]ccc45)CC3)C2=O)C(=O)N1 (centres unmarked) [Compound A114, 3-(6-oxo-1′-((6-(trifluoromethyl)-1H-indol-4-yl)methyl)-6,8-dihydro-2H,7H-spiro[furo[2,3-e]isoindole-3,4′-piperidin]-7-yl)piperidine-2,6-dione]
  DC50: 50 to 200 nM
  Dmax: 60 to 80%

## O=C1CCC(N2Cc3c(ccc4c3OCC43CCN(Cc4cccc5ccoc45)CC3)C2=O)C(=O)N1 (centres unmarked) [Compound A115, 3-(1′-(benzofuran-7-ylmethyl)-6-oxo-6,8-dihydro-2H,7H-spiro[furo[2,3-e]isoindole-3,4′-piperidin]-7-yl)piperidine-2,6-dione]
  DC50: 50 to 200 nM
  Dmax: 60 to 80%
